Literature values as cited in PubChem BioAssay AID1259409 (Chemical Carcinogenesis Research Information System (CCRIS), 2018).
Values joined by “and” are separate entries in the source; they are usually repeats but may differ in a detail not shown here. Equal values may be shown once.

System: rodent chemically induced tumor inhibition, incidence and multiplicity
Test: CCRIS tumor inhibitor studies
Conditions: for tumour outcome (control, treated, inhibition, significance): Promoter: NONE USED

CC(=O)Nc1nnc(S(N)(=O)=O)s1
tumour outcome (control, treated, inhibition, significance) (Carcinogen: N-BUTYL-N-(4-HYDROXYBUTYL)NITROSAMINE, 3817-11-6, Dose [Inhibitor]: 0.35% DIET DAILY FOR 34 WK STARTING AFTER CARCINOGEN TREATMENT (STUDY DURATION: 38 WK), Route [Inhibitor]: ORAL, Species: RAT, Strain/Sex: F344/MALE, Target Tissue: Type of Lesion: URINARY BLADDER: PAPILLOMA, Dose [Carcinogen]: 0.01% IN DRINKING WATER FOR 4 WK): 33%, 15%, 55%, not significant

CC(C)(C)c1cc(O)c(O)c(C(C)(C)C)c1
tumour outcome (control, treated, inhibition, significance) (Carcinogen: BENZO[A]PYRENE, 50-32-8, Dose [Inhibitor]: 0.03 MMOL/G OF DIET DAILY STARTING 7 D BEFORE AND CONTINUING THROUGH 3 D AFTER CARCINOGEN TREATMENT FOLLOWED BY OBSERVAT, Route [Inhibitor]: ORAL, Species: MOUSE, Strain/Sex: ICR/FEMALE, Target Tissue: Type of Lesion: FORESTOMACH: NEOPLASM, Dose [Carcinogen]: 1 MG IN 0.2 ML CORN OIL 2/WK FOR 4 WK): 100%, 75%, 25%, p<0.05 and 95%, 74%, 22%, not significant

NC(N)=S
outcome (Carcinogen: N-BIS-(2-HYDROXYPROPYL)NITROSAMINE [53609-64-6], Dose [Inhibitor]: 0, 0.2% IN DIET 4 WK BEGINNING 1 WK POST CARCINOGEN DOSE (STUDY DURATION: 5 WK), Route [Inhibitor]: ORAL, Species: RAT, Strain/Sex: F344/DUCRJ/MALE, Target Tissue: Type of Lesion: THYROID GLAND: ADENOMATOUS GROWTH PATTERN, Dose [Carcinogen]: 2800 MG/KG BW ONCE (STUDY DURATION: 5 WK), Promoter: NONE): 0%, 30%, -100%, not significant

O=C(CC(=O)c1ccccc1)c1ccccc1
tumour outcome (control, treated, inhibition, significance) (Carcinogen: 7,12-DIMETHYLBENZ[A]ANTHRACENE, 57-97-6, Dose [Inhibitor]: 0, 1% IN DIET FOR 22 WK BEGINNING 2 WK PRIOR TO CARCINOGEN DOSE (STUDY DURATION: 22 WK), Route [Inhibitor]: ORAL, Species: MOUSE, Strain/Sex: SENCAR/FEMALE, Target Tissue: Type of Lesion: LYMPHATIC SYSTEM: LYMPHOMA OR LEUKEMIA, Dose [Carcinogen]: 1 MG IN 0.1 ML CORN OIL 1/WK FOR 5 WK): 45%, 0%, 100%, p<0.05
tumour outcome (control, treated, inhibition, significance) (Carcinogen: 7,12-DIMETHYLBENZ[A]ANTHRACENE, 57-97-6, Dose [Inhibitor]: 0, 1% IN DIET FOR 22 WK BEGINNING 2 WK PRIOR TO CARCINOGEN DOSE (STUDY DURATION: 22WK), Route [Inhibitor]: ORAL, Species: MOUSE, Strain/Sex: SENCAR/FEMALE, Target Tissue: Type of Lesion: MAMMARY GLAND: TUMOR, Dose [Carcinogen]: 1 MG IN 0.1 ML CORN OIL 1/WK FOR 5 WK): 68%, 2%, 97%, p<0.05
tumour outcome (control, treated, inhibition, significance) (Carcinogen: 7,12-DIMETHYLBENZ[A]ANTHRACENE, 57-97-6, Dose [Inhibitor]: 0, 1% IN DIET FOR 22 WK BEGINNING 2 WK PRIOR TO CARCINOGEN DOSE (STUDY DURATION: 22WK), Route [Inhibitor]: ORAL, Species: MOUSE, Strain/Sex: SENCAR/FEMALE, Target Tissue: Type of Lesion: OVARY:TUMOR, Dose [Carcinogen]: 1 MG IN 0.1 ML CORN OIL 1/WK FOR 5 WK): 20%, 0%, 100%, p<0.05
outcome (Carcinogen: 7,12-Dimethylbenz[a]anthracene, 57-97-6, Dose [Inhibitor]: 0, 10 umol 3x/wk for 10 wk, Route [Inhibitor]: Dermal, Species: Mouse, Strain/Sex: CD-1/Female, Target Tissue: Type of Lesion: Skin: tumor, Dose [Carcinogen]: 200 nmol in 200 ul acetone, once, study duration 11 wk, Promoter: Mirex, 2385-85-5): 37%, 15%, not significant
outcome (Carcinogen: 7,12-Dimethylbenz[a]anthracene, 57-97-6, Dose [Inhibitor]: 0, 10 umol 3x/wk for 14 wk, Route [Inhibitor]: Dermal, Species: Mouse, Strain/Sex: CD-1/Female, Target Tissue: Type of Lesion: Skin: tumor, Dose [Carcinogen]: 200 nmol in 200 ul acetone, once, study duration 15 wk, Promoter: Mirex, 2385-85-5): 60%, 40%, not significant
outcome (Carcinogen: 7,12-Dimethylbenz[a]anthracene, 57-97-6, Dose [Inhibitor]: 0, 10 umol 3x/wk for 18 wk, Route [Inhibitor]: Dermal, Species: Mouse, Strain/Sex: CD-1/Female, Target Tissue: Type of Lesion: Skin: tumor, Dose [Carcinogen]: 200 nmol in 200 ul acetone, once, study duration 19 wk, Promoter: Mirex, 2385-85-5): 80%, 70%, not significant
outcome (Carcinogen: 7,12-Dimethylbenz[a]anthracene, 57-97-6, Dose [Inhibitor]: 0, 1% in diet for 22 wk beginning 2 wk prior to carcinogen dose (study duration: 22wk), Route [Inhibitor]: Oral, Species: Mouse, Strain/Sex: Sencar/Female, Target Tissue: Type of Lesion: Mammary Gland: Tumor, Dose [Carcinogen]: 1 mg in 0.1 ml corn oil 1/wk for 5 wk, Promoter: None): 3%, 0%, 100% at 3 wk; 38%, 0%, 100% at 9 wk; 55%, 0% at 13 wk; 68%, 3%, 96% at 2

CCCCOCCOCCOCc1cc2c(cc1CCC)OCO2
tumour outcome (control, treated, inhibition, significance) (Carcinogen: N-NITROSODIETHYLAMINE, 55-18-5, Dose [Inhibitor]: 400 MG/KG IN 0.2 ML SESAME OIL (TOTAL VOL 0.1 ML) 2 HR PRIOR TO EACH CARCINOGEN DOSE (STUDY DURATION: 21 WK), Route [Inhibitor]: SUBCUTANEOUS, Species: HAMSTER, Strain/Sex: SYRIAN/MALE, Target Tissue: Type of Lesion: LUNG: ADENOMA, ADENOCARCINOMA, Dose [Carcinogen]: 17.8 MG/KG IN 0.9% SALINE (TOTAL VOL 0.1 ML) 2/WK FOR 20 WK): 6/10 (60%), 0/10 (0%), 100%, p<0.01
